Source: the NIST ThermoML archive (doi:10.1016/j.jct.2006.09.007)

Legend:
[1] = 101.3 kPa, Liquid
[2] = molar heat capacity at constant pressure; settings: 298.15 K; 101.33 kPa; Liquid; Flow calorimetry
[3] = xn = mol fraction of the nth substance listed; settings: 101.3 kPa, Liquid

Cc1ccc(C)c(C)c1 [1,2,4-trimethylbenzene]
[1]
Settings	mass density [kg/m3]
298.15 K	871.56
308.15 K	862.53

Settings	molar heat capacity at constant pressure [J/K/mol]
[2]	213.02

Cc1ccc(C)c(C)c1 [1,2,4-trimethylbenzene] + N#Cc1ccccc1
[3], x2 = 0
Settings	mass density [kg/m3]
298.15 K	871.56
308.15 K	862.53

Cc1ccccc1C [1,2-dimethylbenzene]
[1]
Settings	mass density [kg/m3]
298.15 K	875.55
308.15 K	866.29

Settings	molar heat capacity at constant pressure [J/K/mol]
[2]	187.28

Cc1ccccc1C [1,2-dimethylbenzene] + N#Cc1ccccc1
[3], x2 = 0
Settings	mass density [kg/m3]
298.15 K	875.55
308.15 K	866.29

Cc1cc(C)cc(C)c1 [1,3,5-trimethylbenzene]
[1]
Settings	mass density [kg/m3]
298.15 K	860.9
308.15 K	851.88

Settings	molar heat capacity at constant pressure [J/K/mol]
[2]	207.43

Cc1cc(C)cc(C)c1 [1,3,5-trimethylbenzene] + N#Cc1ccccc1
[3], x2 = 0
Settings	mass density [kg/m3]
298.15 K	860.9
308.15 K	851.88

Cc1cccc(C)c1 [1,3-dimethylbenzene]
[1]
Settings	mass density [kg/m3]
298.15 K	859.68
308.15 K	850.01

Settings	molar heat capacity at constant pressure [J/K/mol]
[2]	181.38

Cc1cccc(C)c1 [1,3-dimethylbenzene] + N#Cc1ccccc1
[3], x2 = 0
Settings	mass density [kg/m3]
298.15 K	859.68
308.15 K	850.01

Cc1ccc(C)cc1 [1,4-dimethylbenzene]
[1]
Settings	mass density [kg/m3]
298.15 K	856.48
308.15 K	846.98

Settings	molar heat capacity at constant pressure [J/K/mol]
[2]	181.73

Cc1ccc(C)cc1 [1,4-dimethylbenzene] + N#Cc1ccccc1
[3], x2 = 0
Settings	mass density [kg/m3]
298.15 K	856.48
308.15 K	846.98

COc1ccccc1 [anisole]
[1]
Settings	mass density [kg/m3]
298.15 K	988.98
308.15 K	978.7

Settings	molar heat capacity at constant pressure [J/K/mol]
[2]	191.54

COc1ccccc1 [anisole] + N#Cc1ccccc1
[3], x2 = 0
Settings	mass density [kg/m3]
298.15 K	988.98
308.15 K	978.7

N#Cc1ccccc1 [benzonitrile]
[1]
Settings	mass density [kg/m3]
298.15 K	1000.25
308.15 K	990.67

Settings	molar heat capacity at constant pressure [J/K/mol]
[2]	166.41

N#Cc1ccccc1 [benzonitrile] + CC(C)c1ccccc1
[3], x1 = 1
Settings	mass density [kg/m3]
298.15 K	1000.25
308.15 K	990.67

N#Cc1ccccc1 [benzonitrile] + CCc1ccccc1
[3]
Settings	excess molar heat capacity, 298.15 K [J/K/mol]	mass density, 298.15 K [kg/m3]	mass density, 308.15 K [kg/m3]
x1 = 0.0616	–	870.36	860.67
x1 = 0.0673	–	871.08	861.35
x1 = 0.0699	0.77	–	–
x1 = 0.1221	1.239	–	–
x1 = 0.1384	–	880.39	870.62
x1 = 0.219	1.824	–	–
x1 = 0.2367	–	893.17	883.4
x1 = 0.3021	2.096	–	–
x1 = 0.3478	2.184	–	–
x1 = 0.3726	–	911.19	901.43
x1 = 0.4424	2.181	–	–
x1 = 0.4563	–	922.38	912.65
x1 = 0.4991	–	928.14	918.47
x1 = 0.5151	2.098	–	–
x1 = 0.5903	–	940.59	931
x1 = 0.5925	1.917	–	–
x1 = 0.6379	1.786	–	–
x1 = 0.6935	–	955	945.46
x1 = 0.7404	1.395	–	–
x1 = 0.7801	–	967.39	957.85
x1 = 0.8033	1.119	–	–
x1 = 0.8857	0.666	–	–
x1 = 0.8862	–	983.01	973.45
x1 = 0.947	0.33	–	–
x1 = 0.9502	–	992.6	983.07
x1 = 1	–	1000.25	990.67

N#Cc1ccccc1 [benzonitrile] + COc1ccccc1
mass density [kg/m3], [3]
Settings	298.15 K	308.15 K
x1 = 0.0168	989.23	979.02
x1 = 0.0762	990.08	979.91
x1 = 0.1199	990.69	980.57
x1 = 0.2462	992.32	982.29
x1 = 0.3042	993.03	983.06
x1 = 0.3614	993.71	983.73
x1 = 0.5068	995.35	985.48
x1 = 0.5823	996.16	986.31
x1 = 0.6772	997.14	987.35
x1 = 0.7832	998.21	988.45
x1 = 0.9105	999.44	989.77
x1 = 1	1000.25	990.67
